Each structure is given as a SMILES string. Active and inactive are the calls of the source. How the calls were made is not given here.

The results in this text go back to PubChem BioAssay AID1259407 (Chemical Carcinogenesis Research Information System (CCRIS), 2018).

This series concerns CCRIS mutagenicity, Ames/micronucleus/aberration tests. As to the kind of experiment: CCRIS mutagenicity studies.
Where [1] appears, read: Test System: AMES SALMONELLA TYPHIMURIUM, Strain/Indicator: TA97, Metabolic Activation: RAT, LIVER, S-9, AROCLOR 1254, Method: STANDARD PLATE.
The mark [2] stands for this setting: Test System: AMES SALMONELLA TYPHIMURIUM, Strain/Indicator: TA98, Metabolic Activation: RAT, LIVER, S-9, AROCLOR 1254, Method: STANDARD PLATE.
[3] abbreviates: Test System: AMES SALMONELLA TYPHIMURIUM, Strain/Indicator: TA100, Metabolic Activation: RAT, LIVER, S-9, AROCLOR 1254, Method: STANDARD PLATE.
The mark [4] stands for this setting: Test System: AMES SALMONELLA TYPHIMURIUM, Strain/Indicator: TA100, Metabolic Activation: NONE, Method: PREINCUBATION
Setting [5] is: Test System: AMES SALMONELLA TYPHIMURIUM, Strain/Indicator: TA98, Metabolic Activation: NONE, Method: STANDARD PLATE.
Setting [6] is: Test System: AMES SALMONELLA TYPHIMURIUM, Strain/Indicator: TA100, Metabolic Activation: NONE, Method: STANDARD PLATE.

Regarding `CC(NC(=O)COc1ccc(Cl)cc1Cl)C(=O)O` (configuration not stated), the mutagenic call under setting [1] is “inactive; negative”; the mutagenic call (Test System: AMES SALMONELLA TYPHIMURIUM, Strain/Indicator: TA97, Metabolic Activation: WOODCHUCK, LIVER, S-9, 3-METHYLCHOLANTHRENE, Method: STANDARD PLATE) was “inactive; negative”; the mutagenic call under setting [2] is “inactive; negative”; the mutagenic call (Test System: AMES SALMONELLA TYPHIMURIUM, Strain/Indicator: TA98, Metabolic Activation: WOODCHUCK, LIVER, S-9, 3-METHYLCHOLANTHRENE, Method: STANDARD PLATE) is “inactive; negative”; the mutagenic call under setting [3] is “inactive; negative”; the mutagenic call (Test System: AMES SALMONELLA TYPHIMURIUM, Strain/Indicator: TA100, Metabolic Activation: WOODCHUCK, LIVER, S-9, 3-METHYLCHOLANTHRENE, Method: STANDARD PLATE) is “inactive; negative”. The mutagenic call is “inactive; negative” (Test System: AMES SALMONELLA TYPHIMURIUM, Strain/Indicator: TA1535, Metabolic Activation: RAT, LIVER, S-9, AROCLOR 1254, Method: STANDARD PLATE); “inactive; negative” (Test System: AMES SALMONELLA TYPHIMURIUM, Strain/Indicator: TA1535, Metabolic Activation: WOODCHUCK, LIVER, S-9, 3-METHYLCHOLANTHRENE, Method: STANDARD PLATE); “inactive; negative” (Test System: AMES SALMONELLA TYPHIMURIUM, Strain/Indicator: TA1538, Metabolic Activation: RAT, LIVER, S-9, AROCLOR 1254, Method: STANDARD PLATE); “inactive; negative” (Test System: AMES SALMONELLA TYPHIMURIUM, Strain/Indicator: TA1538, Metabolic Activation: WOODCHUCK, LIVER, S-9, 3-METHYLCHOLANTHRENE, Method: STANDARD PLATE).

For the compound `COc1cc2c(c3oc(=O)c4c(c13)CCOC4=O)[C@@H]1C=CO[C@@H]1O2`, the mutagenic call (Test System: AMES SALMONELLA TYPHIMURIUM, Strain/Indicator: TA98, Metabolic Activation: RAT, LIVER, MICROSOMES, PHENOBARBITAL, Method: STANDARD PLATE) was “active; positive”; the mutagenic call (Test System: AMES SALMONELLA TYPHIMURIUM, Strain/Indicator: TA98, Metabolic Activation: RAT, LIVER, S-9, PHENOBARBITAL, Method: STANDARD PLATE) was “active; positive”; the mutagenic call under setting [4] was “active; positive”; the mutagenic call (Test System: AMES SALMONELLA TYPHIMURIUM, Strain/Indicator: TA100, Metabolic Activation: RAT, LIVER, MICROSOMES, PHENOBARBITAL, Method: STANDARD PLATE) is “active; positive”; the mutagenic call (Test System: AMES SALMONELLA TYPHIMURIUM, Strain/Indicator: TA100, Metabolic Activation: RAT, LIVER, S-9, PHENOBARBITAL, Method: PREINCUBATION) was “active; positive”; the mutagenic call (Test System: UDS HUMAN FIBROBLASTS, Strain/Indicator: THY INCORP (NON-S-PHASE), Metabolic Activation: MOUSE, LIVER, S-9, Method: AUTORADIOGRAPHY) is “active; positive”. The mutagenic call (Test System: UDS RODENT HEPATOCYTES, Strain/Indicator: THY INCORP (NON-S-PHASE), Method: AUTORADIOGRAPHY) was “active; positive”.

For the compound `CCN(CC)c1ccc(N)cc1`, the mutagenic call by setting is: (End Point: IN VITRO CHROMOSOMAL ABERRATIONS, Test System: CHINESE HAMSTER LUNG CELLS (CHL), Metabolic Activation: RAT, LIVER, S-9, KC-400) “inactive; negative”; (End Point: IN VITRO CHROMOSOMAL ABERRATIONS, Test System: CHINESE HAMSTER OVARY CELLS (CHO), Metabolic Activation: NONE) “active; positive (structural changes)”; (End Point: IN VITRO CHROMOSOMAL ABERRATIONS, Test System: CHINESE HAMSTER OVARY CELLS (CHO), Metabolic Activation: RAT, LIVER, S-9, AROCLOR 1254) “inactive; negative”; (Test System: AMES SALMONELLA TYPHIMURIUM, Strain/Indicator: TA97, Metabolic Activation: HAMSTER, LIVER, S-9, AROCLOR 1254 (10%), Method: PREINCUBATION) “active; positive”; (Test System: AMES SALMONELLA TYPHIMURIUM, Strain/Indicator: TA97, Metabolic Activation: NONE, Method: PREINCUBATION) “inactive; negative”; (Test System: AMES SALMONELLA TYPHIMURIUM, Strain/Indicator: TA97, Metabolic Activation: RAT, LIVER, S-9, AROCLOR 1254 (10%), Method: PREINCUBATION) “inactive; negative”. Besides, the mutagenic call (Test System: AMES SALMONELLA TYPHIMURIUM, Strain/Indicator: TA98, Metabolic Activation: HAMSTER, LIVER, S-9, AROCLOR 1254 (10%), Method: PREINCUBATION) was “active; positive”; the mutagenic call (Test System: AMES SALMONELLA TYPHIMURIUM, Strain/Indicator: TA98, Metabolic Activation: NONE, Method: PREINCUBATION) was “inactive; negative”; the mutagenic call (Test System: AMES SALMONELLA TYPHIMURIUM, Strain/Indicator: TA98, Metabolic Activation: RAT, LIVER, S-9, AROCLOR 1254 (10%), Method: PREINCUBATION) was “active; positive”; the mutagenic call (Test System: AMES SALMONELLA TYPHIMURIUM, Strain/Indicator: TA100, Metabolic Activation: HAMSTER, LIVER, S-9, AROCLOR 1254 (10%), Method: PREINCUBATION) is “active; positive”; the mutagenic call under setting [4] was “inactive; negative”; the mutagenic call (Test System: AMES SALMONELLA TYPHIMURIUM, Strain/Indicator: TA100, Metabolic Activation: RAT, LIVER, S-9, AROCLOR 1254 (30%), Method: PREINCUBATION) was “inactive; negative”. For the same compound, the mutagenic call reads like this: (Test System: AMES SALMONELLA TYPHIMURIUM, Strain/Indicator: TA1535, Metabolic Activation: HAMSTER, LIVER, S-9, AROCLOR 1254 (10%), Method: PREINCUBATION) “inactive; negative”; (Test System: AMES SALMONELLA TYPHIMURIUM, Strain/Indicator: TA1535, Metabolic Activation: NONE, Method: PREINCUBATION) “inactive; negative”; (Test System: AMES SALMONELLA TYPHIMURIUM, Strain/Indicator: TA1535, Metabolic Activation: RAT, LIVER, S-9, AROCLOR 1254 (10%), Method: PREINCUBATION) “inactive; negative”.

`COc1cc(O)c2c(c1)C1=C[C@H](O)[C@@H](O)C[C@]1(C)OC2=O`: the mutagenic call reads like this: (End Point: Ames Salmonella typhimurium, Strain/Indicator: TA97, Metabolic Activation: None, Method: Standard plate) “inactive; negative. nitrosation did not increase mutagenicity”; (End Point: Ames Salmonella typhimurium, Strain/Indicator: TA97, Metabolic Activation: Rat, Liver, S-9, Aroclor 1254 (10%), Method: Standard plate) “inactive; negative. nitrosation did not increase mutagenicity”; (End Point: Ames Salmonella typhimurium, Strain/Indicator: TA102, Metabolic Activation: None, Method: Standard plate) “inactive; negative. nitrosation did not increase mutagenicity”; (End Point: Ames Salmonella typhimurium, Strain/Indicator: TA102, Metabolic Activation: Rat, Liver, S-9, Aroclor 1254 (10%), Method: Standard plate) “inactive; negative. nitrosation did not increase mutagenicity”; (End Point: Ames Salmonella typhimurium, Strain/Indicator: TA104, Metabolic Activation: None, Method: Standard plate) “inactive; negative. nitrosation did not increase mutagenicity”; (End Point: Ames Salmonella typhimurium, Strain/Indicator: TA104, Metabolic Activation: Rat, Liver, S-9, Aroclor 1254 (10%), Method: Standard plate) “inactive; negative. nitrosation did not increase mutagenicity”. In addition, the mutagenic call runs as follows: under setting [5], “inactive; negative”; (Test System: AMES SALMONELLA TYPHIMURIUM, Strain/Indicator: TA98, Metabolic Activation: RAT LIVER S-9, AROCLOR 1254, Method: STANDARD PLATE) “inactive; negative”; under setting [6], “inactive; negative”; (Test System: AMES SALMONELLA TYPHIMURIUM, Strain/Indicator: TA100, Metabolic Activation: RAT LIVER S-9, AROCLOR 1254, Method: STANDARD PLATE) “inactive; negative”.

Regarding `Clc1ccncc1`, the mutagenic call (Test System: AMES SALMONELLA TYPHIMURIUM, Strain/Indicator: TA97, Metabolic Activation: NONE, Method: STANDARD PLATE) was “inactive; negative”; the mutagenic call under setting [1] was “inactive; negative”; the mutagenic call under setting [5] is “inactive; negative”; the mutagenic call under setting [2] was “inactive; negative”; the mutagenic call under setting [6] was “inactive; negative”; the mutagenic call under setting [3] is “inactive; negative”. The mutagenic call runs as follows: (Test System: AMES SALMONELLA TYPHIMURIUM, Strain/Indicator: TA102, Metabolic Activation: NONE, Method: STANDARD PLATE) “inactive; negative”; (Test System: AMES SALMONELLA TYPHIMURIUM, Strain/Indicator: TA102, Metabolic Activation: RAT, LIVER, S-9, AROCLOR 1254, Method: STANDARD PLATE) “inactive; negative”.

Regarding `CC(=O)OCc1c2cccc3ccc4cc5cccc6ccc1c(c65)c4c32`, the mutagenic call by setting is: under setting [5], “active; positive”; under setting [6], “inactive; negative”.
